According to patent US20260207606A1, “DOSING SCHEDULE OF A SOLID DISPERSION OF A HER2 INHIBITOR” (Boehringer Ingelheim International GmbH, priority 2022, published 2026):

Columns and labels:
[1] = tested on: PC-9 YVMA xenograft; assay: Preclinical PK/TGI model for human dose prediction; set-up: species or system mice; settings: PK/TGI model with predicted human PK parameters
Experimental: This preclinical mathematical model was built with input data from internal in vitro and in vivo data from efficacy experiments in PC-9 YVMA xenograft. Plasma exposure and tumor growth inhibition data from mice were used to train the model. The predicted human PK parameters were used to predict the human plasma profile in the preclinical PK/TGI model. In this setting the PK/TGI model was used to identify the required dose in human necessary to achieve a TGI >100%. This was predicted at 40 mg BID.

[2] = tested on: patients with HER2 mutation positive advanced/metastatic NSCLC; assay: Phase Ib dose expansion, Cohort 1: safety (treatment related adverse events); type: in vivo, human; settings: 120/240 mg QD, 42 patients
Description: (§1) This Example focuses on the dose expansion part (Phase Ib) of the Phase I study described in Example 8. Approximately 275 patients diagnosed with advanced or metastatic refractory NSCLC harbouring mutations in the HER2 gene are enrolled. Patients are divided into 5 cohorts according to the main inclusion criteria listed below.
(§2) The trial objectives of Phase Ib include: • For cohort 1, cohort 2, and cohort 5, assess objective tumour response rate by central independent review; • For cohort 3, assess objective tumour response rate by investigator assessment; • For all cohorts, further investigate the safety, tolerability, and PK of the investigated doses of zongertinib in patients with HER2 mutation positive advanced/metastatic NSCLC; • For all cohorts, continue evaluating safety, and patient-reported outcomes.
The main inclusion criteria include: • Patients with a confirmed diagnosis of an advanced, unresectable and/or metastatic non-haematologic malignancy with at least one measurable lesion; • Availability and willingness to provide a sample of archival formalin-fixed paraffin embedded (FFPE) tumour tissue material; • Patients must be willing to comply with the blood sampling and tumour biopsy requirements for PK, PD and biomarker analyses; • For cohort 1: Patients with documented HER2 Tyrosine Kinase Domain (TKD) mutation positive non-squamous NSCLC who had received, in the advanced/metastatic setting, at least one line of systemic therapy that includes a platinum-based combination chemotherapy; • For cohort 2: Patients with documented HER2 Tyrosine Kinase Domain (TKD) mutation positive non-squamous NSCLC who have not received any previous lines of therapy (neo or adjuvant chemo, chemoradio or radiotherapy is permitted if at least 6 months have elapsed prior to disease progression); • For cohort 3: Patients with documented HER2 Non-TKD mutation positive NSCLC, and HER2 TKD mutation positive squamous NSCLC, who had received in the advanced/metastatic setting at least one line of systemic therapy that includes a platinum-based combination chemotherapy; • Patients in these cohorts 1 to 4 must have not received prior therapy with HER2 directed antibody-drug conjugates (ADC); • For cohort 5: Patients with documented HER2 TKD mutation positive non-squamous NSCLC who had received prior therapy with HER2 directed ADC in the advanced/metastatic setting and developed disease progression during or after completing this therapy.
The treatment consists of reiterated cycles of 3 weeks as long as the patient has clinical benefit or until undue drug toxicity or withdrawal of consent, whichever occurs first.

[3] = tested on: HER2 Tyrosine Kinase Domain (TKD) mutation positive non-squamous NSCLC; assay: Phase Ib dose expansion, Cohort 1: objective response and disease control (RECIST 1.1); type: in vivo, human; settings: 120/240 mg QD
Description: as §1, §2
The primary endpoints of Phase Ib include: • For cohort 1, 2, and 5: objective response (OR) assessed by independent central review, according to Response Evaluation Criteria In Solid Tumors (RECIST) version 1.1; • For cohort 3: objective response (OR) by investigator.
For Cohort 1, 2, and 5: • Duration of objective response (DoR) according to RECIST 1.1 by central independent review; • Disease control (DC) according to RECIST 1.1 by central independent review; • Progression-free survival (PFS) according to RECIST 1.1 by central independent review; […]

[4] = 23 evaluable patients (received 2-5 cycles at cut-off)

With C=CC(=O)NC1CCN(c2ncc3ncnc(Nc4ccc(Oc5ccc6c(c5)ncn6C)c(C)c4)c3n2)CC1 [compound (1), N-{1-[8-({3-methyl-4-[(1-methyl-1H-1,3-benzodiazol-5-yl)oxy]phenyl}amino)-[1,3]diazino[5,4-d]pyrimidin-2-yl]piperidin-4-yl}prop-2-enamide] the “predicted dose in human necessary to achieve a TGI >100%” value [1] was 40 mg BID, the “AEs leading to treatment discontinuation” value [2] was “No AEs led to treatment discontinuation” and the “TRAE diarrhea, all grades” value [2] was 29%. The “TRAE diarrhea, grade ≥3” value [2] was 0%, the “TRAE dysgeusia, all grades” value [2] was 10% and the “TRAE dysgeusia, grade ≥3” value [2] was 0%. The “TRAE increased aspartate aminotransferase, all grades” value [2] was 10%, the “TRAE increased aspartate aminotransferase, grade ≥3” value [2] was 2% and the “TRAE low appetite, all grades” value [2] was 10%. The “TRAE low appetite, grade ≥3” value [2] was 0%, the “TRAE rash, all grades” value [2] was 21% and the “TRAE rash, grade ≥3” value [2] was 0%. The “Treatment related adverse events (TRAEs), all grades” value ([2]; Jul. 31, 2023) was 67%, the “Treatment related adverse events (TRAEs), grade ≥3” value ([2]; Jul. 31, 2023) was 10% and the DCR [3, 4] was 91%. The ORR [3, 4] was 74% and the “responding patients on treatment at data cut-off” value [3] was “All responding patients remained on treatment”.
